Experimental data taken from ChEMBL document CHEMBL5385860, “Antiproliferative, antiangiogenic and apoptotic effect of new hybrids of quinazoline-4(3H)-ones and sulfachloropyridazine” (Eur J Med Chem, 2023).
Each block holds one compound with its values, some of them ahead of it.

Legend:
[1] = tested on: BT-549; test: Cytotoxicity against human BT-549 cells assessed as growth inhibition at 10 uM relative to control; type: functional; details: read-out: GI
[2] = tested on: UO-31; test: Cytotoxicity against human UO-31 cells assessed as growth inhibition at 10 uM relative to control; type: functional; details: read-out: GI
[3] = tested on: CAKI-1; test: Cytotoxicity against human CAKI-1 cells assessed as growth inhibition at 10 uM relative to control; type: functional; details: read-out: GI
[4] = tested on: 786-0; test: Cytotoxicity against human 786-0 cells assessed as growth inhibition at 10 uM relative to control; type: functional; details: read-out: GI
[5] = tested on: M14; test: Cytotoxicity against human M14 cells assessed as growth inhibition at 10 uM relative to control; type: functional; details: read-out: GI
[6] = tested on: HCT-116; test: Cytotoxicity against human HCT-116 cells assessed as growth inhibition at 10 uM relative to control; type: functional; details: read-out: GI
[7] = tested on: M14; test: cells; details: Homo sapiens, M14, 24 h
[8] = tested on: HCT-116; test: cells; details: Homo sapiens, HCT-116, 24 h
[9] = tested on: LOX IMVI; test: Cytotoxicity against human LOX IMVI cells assessed as growth inhibition at 10 uM relative to control; type: functional; details: read-out: GI
[10] = tested on: MDA-MB-468; test: Cytotoxicity against human MDA-MB-468 cells assessed as growth inhibition at 10 uM relative to control; type: functional; details: read-out: GI
[11] = tested on: PC-3; test: Cytotoxicity against human PC-3 cells assessed as growth inhibition at 10 uM relative to control; type: functional; details: read-out: GI
[12] = tested on: Hs-578T; test: Cytotoxicity against human Hs-578T cells assessed as growth inhibition at 10 uM relative to control; type: functional; details: read-out: GI
[13] = tested on: T47D; test: Cytotoxicity against human T47D cells assessed as growth inhibition at 10 uM relative to control; type: functional; details: read-out: GI
[14] = tested on: IGROV-1; test: Cytotoxicity against human IGROV-1 cells assessed as growth inhibition at 10 uM relative to control; type: functional; details: read-out: GI
[15] = tested on: UACC-62; test: Cytotoxicity against human UACC-62 cells assessed as growth inhibition at 10 uM relative to control; type: functional; details: read-out: GI
[16] = tested on: SF-268; test: Cytotoxicity against human SF-268 cells assessed as growth inhibition at 10 uM relative to control; type: functional; details: read-out: GI
[17] = tested on: RPMI-8226; test: Cytotoxicity against human RPMI-8226 cells assessed as growth inhibition at 10 uM relative to control; type: functional; details: read-out: GI
[18] = tested on: MOLT-4; test: Cytotoxicity against human MOLT-4 cells assessed as growth inhibition at 10 uM relative to control; type: functional; details: read-out: GI
[19] = tested on: K562; test: Cytotoxicity against human K562 cells assessed as growth inhibition at 10 uM relative to control; type: functional; details: read-out: GI
[20] = tested on: CCRF-CEM; test: Cytotoxicity against human CCRF-CEM cells assessed as growth inhibition at 10 uM relative to control; type: functional; details: read-out: GI
[21] = tested on: MCF7; test: Cytotoxicity against human MCF7 cells assessed as growth inhibition at 10 uM relative to control; type: functional; details: read-out: GI
[22] = tested on: A498; test: Cytotoxicity against human A498 cells assessed as growth inhibition at 10 uM relative to control; type: functional; details: read-out: GI
[23] = tested on: U-251; test: Cytotoxicity against human U-251 cells assessed as growth inhibition at 10 uM relative to control; type: functional; details: read-out: GI
[24] = tested on: SNB-75; test: Cytotoxicity against human SNB-75 cells assessed as growth inhibition at 10 uM relative to control; type: functional; details: read-out: GI
[25] = tested on: NCI-H522; test: Cytotoxicity against human NCI-H522 cells assessed as growth inhibition at 10 uM relative to control; type: functional; details: read-out: GI
[26] = tested on: M14; test: cells; details: Homo sapiens, M14, light or radiation study
[27] = tested on: EKVX; test: Cytotoxicity against human EKVX cells assessed as growth inhibition at 10 uM relative to control; type: functional; details: read-out: GI
[28] = tested on: HOP-92; test: Cytotoxicity against human HOP-92 cells assessed as growth inhibition at 10 uM relative to control; type: functional; details: read-out: GI
[29] = tested on: HUVEC; test: Cytotoxicity against HUVEC cells assessed as effect on cell morphology at 10 ug/ml measured after 72 hrs; type: toxicity, cell-based; details: human, dose 10 µg/ml
[30] = biological target: Vascular endothelial growth factor receptor 2 (Homo sapiens, UniProt P35968); test: Inhibition of recombinant VEGFR2 (unknown origin) by kinase glo detection reagent based assay
[31] = tested on: UO-31; test: Induction of apoptosis in human UO-31 cells assessed as increase in caspase-3 level by measuring optical density by Western blot densitometry analysis (reference value: 0.095); type: functional
[32] = tested on: SF-539; test: Cytotoxicity against human SF-539 cells assessed as growth inhibition at 10 uM relative to control; type: functional; details: read-out: GI
[33] = tested on: SW-620; test: Cytotoxicity against human SW-620 cells assessed as growth inhibition at 10 uM relative to control; type: functional; details: read-out: GI
[34] = tested on: HOP-62; test: Cytotoxicity against human HOP-62 cells assessed as growth inhibition at 10 uM relative to control; type: functional; details: read-out: GI
[35] = tested on: SK-OV-3; test: Cytotoxicity against human SK-OV-3 cells assessed as growth inhibition at 10 uM relative to control; type: functional; details: read-out: GI
[36] = tested on: ACHN; test: Cytotoxicity against human ACHN cells assessed as growth inhibition at 10 uM relative to control; type: functional; details: read-out: GI
[37] = tested on: NCI-H226; test: Cytotoxicity against human NCI-H226 cells assessed as growth inhibition at 10 uM relative to control; type: functional; details: read-out: GI
[38] = tested on: MDA-MB-231; test: Cytotoxicity against human MDA-MB-231 cells assessed as growth inhibition at 10 uM relative to control; type: functional; details: read-out: GI
[39] = tested on: SR; test: Cytotoxicity against human SR cells assessed as growth inhibition at 10 uM relative to control; type: functional; details: read-out: GI
[40] = tested on: UACC-257; test: Cytotoxicity against human UACC-257 cells assessed as growth inhibition at 10 uM relative to control; type: functional; details: read-out: GI
[41] = tested on: SNB-75; test: cells; details: Homo sapiens, SNB-75, 24 h

Vascular endothelial growth factor receptor 2, sequence (P35968 whole entry): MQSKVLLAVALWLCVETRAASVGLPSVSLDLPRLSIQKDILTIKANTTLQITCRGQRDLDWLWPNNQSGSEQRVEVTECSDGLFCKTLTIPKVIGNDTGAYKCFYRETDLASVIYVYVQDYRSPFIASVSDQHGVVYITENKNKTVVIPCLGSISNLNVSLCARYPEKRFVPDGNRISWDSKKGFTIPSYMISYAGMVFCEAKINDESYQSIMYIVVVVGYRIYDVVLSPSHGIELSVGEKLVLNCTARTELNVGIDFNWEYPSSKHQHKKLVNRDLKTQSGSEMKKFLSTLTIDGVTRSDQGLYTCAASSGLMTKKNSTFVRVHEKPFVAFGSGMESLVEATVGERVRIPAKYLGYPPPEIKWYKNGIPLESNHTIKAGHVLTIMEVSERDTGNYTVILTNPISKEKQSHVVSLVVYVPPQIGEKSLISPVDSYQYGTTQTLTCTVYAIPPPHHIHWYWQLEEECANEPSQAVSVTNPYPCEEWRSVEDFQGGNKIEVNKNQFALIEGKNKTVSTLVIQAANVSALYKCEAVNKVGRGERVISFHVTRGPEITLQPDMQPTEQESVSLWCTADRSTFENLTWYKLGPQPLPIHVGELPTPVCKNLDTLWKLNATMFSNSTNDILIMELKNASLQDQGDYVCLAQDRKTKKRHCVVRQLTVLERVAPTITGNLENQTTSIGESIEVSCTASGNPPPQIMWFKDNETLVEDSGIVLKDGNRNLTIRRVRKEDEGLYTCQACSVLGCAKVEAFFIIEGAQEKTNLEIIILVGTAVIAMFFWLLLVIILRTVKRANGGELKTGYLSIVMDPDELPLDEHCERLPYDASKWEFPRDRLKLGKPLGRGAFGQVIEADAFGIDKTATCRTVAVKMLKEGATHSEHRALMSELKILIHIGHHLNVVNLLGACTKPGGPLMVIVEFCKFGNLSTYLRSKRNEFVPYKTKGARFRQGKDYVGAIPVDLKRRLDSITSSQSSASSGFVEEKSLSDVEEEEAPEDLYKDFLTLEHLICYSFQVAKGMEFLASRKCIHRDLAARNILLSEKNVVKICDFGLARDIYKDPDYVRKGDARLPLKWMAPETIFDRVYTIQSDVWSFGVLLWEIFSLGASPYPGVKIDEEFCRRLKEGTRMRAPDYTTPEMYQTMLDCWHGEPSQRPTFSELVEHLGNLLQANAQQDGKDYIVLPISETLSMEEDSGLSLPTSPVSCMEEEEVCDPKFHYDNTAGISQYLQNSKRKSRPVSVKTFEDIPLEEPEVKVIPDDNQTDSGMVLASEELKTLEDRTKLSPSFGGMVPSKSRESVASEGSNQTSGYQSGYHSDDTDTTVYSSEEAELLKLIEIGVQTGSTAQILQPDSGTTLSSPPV

IC50 [7]: 12.8 µM
IC50 [8]: 28 µM
Structure (SMILES): Cc1ccc2[nH]c(=S)n(-c3ccc(S(=O)(=O)Nc4ccc(Cl)nn4)cc3)c(=O)c2c1
inhibition of growth at 10 µM [1]: 17%
inhibition of growth at 10 µM [2]: 15%
inhibition of growth at 10 µM [3]: 10%
inhibition of growth at 10 µM [4]: 39%
inhibition of growth at 10 µM [5]: 100%
inhibition of growth at 10 µM [6]: 60%

Structure (SMILES): CNC(=O)CSc1nc2ccccc2c(=O)n1-c1ccc(S(=O)(=O)Nc2ccc(Cl)nn2)cc1
inhibition of growth at 10 µM [9]: 24%

IC50 [7]: 4.46 µM
IC50 [26]: 4.76 µM
Structure (SMILES): O=C(CSc1nc2ccccc2c(=O)n1-c1ccc(S(=O)(=O)Nc2ccc(Cl)nn2)cc1)Nc1ccccc1
inhibition of growth at 10 µM [10]: 15%
inhibition of growth at 10 µM [11]: 14%
inhibition of growth at 10 µM [12]: 27%
inhibition of growth at 10 µM [13]: 18%
inhibition of growth at 10 µM [14]: 13%
inhibition of growth at 10 µM [15]: 35%
inhibition of growth at 10 µM [16]: 10%
inhibition of growth at 10 µM [17]: 11%
inhibition of growth at 10 µM [18]: 18%
inhibition of growth at 10 µM [19]: 12%
inhibition of growth at 10 µM [20]: 11%
inhibition of growth at 10 µM [1]: 13%
inhibition of growth at 10 µM [21]: 17%
inhibition of growth at 10 µM [2]: 13%
inhibition of growth at 10 µM [3]: 12%
inhibition of growth at 10 µM [22]: 15%
inhibition of growth at 10 µM [9]: 18%
inhibition of growth at 10 µM [23]: 22%
inhibition of growth at 10 µM [24]: 11%
inhibition of growth at 10 µM [25]: 10%

Structure (SMILES): Cn1c(SCC(=O)Nc2ccc(S(=O)(=O)Nc3ccc(Cl)nn3)cc2)nc2ccccc2c1=O
inhibition of growth at 10 µM [27]: 10%
inhibition of growth at 10 µM [1]: 17%
inhibition of growth at 10 µM [2]: 12%
inhibition of growth at 10 µM [22]: 19%
inhibition of growth at 10 µM [28]: 17%

IC50 [30]: 0.066 µM
Structure (SMILES): O=C(CSc1nc2ccccc2c(=O)n1CCc1ccccc1)Nc1ccc(S(=O)(=O)Nc2ccc(Cl)nn2)cc1
Activity [29]: Non-Toxic
OD [31]: 0.772

Structure (SMILES): O=C(CSc1nc2ccccc2c(=O)n1-c1ccc(Cl)c(Cl)c1)Nc1ccc(S(=O)(=O)Nc2ccc(Cl)nn2)cc1
inhibition of growth at 10 µM [32]: 10%
inhibition of growth at 10 µM [33]: 10%
inhibition of growth at 10 µM [34]: 12%
inhibition of growth at 10 µM [13]: 14%
inhibition of growth at 10 µM [35]: 11%
inhibition of growth at 10 µM [15]: 15%
inhibition of growth at 10 µM [2]: 20%
inhibition of growth at 10 µM [3]: 18%
inhibition of growth at 10 µM [5]: 14%
inhibition of growth at 10 µM [24]: 31%
inhibition of growth at 10 µM [25]: 10%
inhibition of growth at 10 µM [28]: 28%

Structure (SMILES): O=C(CSc1nc2ccccc2c(=O)n1Cc1ccccc1)Nc1ccc(S(=O)(=O)Nc2ccc(Cl)nn2)cc1
inhibition of growth at 10 µM [36]: 10%
inhibition of growth at 10 µM [37]: 12%
inhibition of growth at 10 µM [34]: 11%
inhibition of growth at 10 µM [38]: 13%
inhibition of growth at 10 µM [39]: 10%
inhibition of growth at 10 µM [21]: 13%
inhibition of growth at 10 µM [2]: 21%
inhibition of growth at 10 µM [3]: 13%

IC50 [41]: 47.5 µM
Structure (SMILES): O=C(CSc1nc2ccccc2c(=O)n1-c1ccccc1)Nc1ccc(S(=O)(=O)Nc2ccc(Cl)nn2)cc1
inhibition of growth at 10 µM [37]: 10%
inhibition of growth at 10 µM [2]: 21%
inhibition of growth at 10 µM [40]: 12%
inhibition of growth at 10 µM [24]: 27%
inhibition of growth at 10 µM [28]: 11%

Structure (SMILES): O=c1c2cc3ccccc3cc2[nH]c(=S)n1-c1ccc(S(=O)(=O)Nc2ccc(Cl)nn2)cc1
inhibition of growth at 10 µM [21]: 11%
inhibition of growth at 10 µM [2]: 18%
inhibition of growth at 10 µM [3]: 10%
inhibition of growth at 10 µM [9]: 12%
inhibition of growth at 10 µM [25]: 10%

Structure (SMILES): NS(=O)(=O)c1ccc(NC(=O)CSc2nc3ccccc3c(=O)n2-c2ccc(S(=O)(=O)Nc3ccc(Cl)nn3)cc2)cc1
inhibition of growth at 10 µM [12]: 13%
inhibition of growth at 10 µM [15]: 14%
inhibition of growth at 10 µM [2]: 10%
inhibition of growth at 10 µM [3]: 12%
inhibition of growth at 10 µM [24]: 27%
